Experimental data as given in the Deep4Chem optical property database.

Assay: photoluminescence quantum yield (fraction); solvent given as SMILES

Structure (SMILES): Cc1ccc2nc3[nH]c(=O)[nH]c(=O)c3nc2c1
- photoluminescence quantum yield (in CC#N): 0.025
- photoluminescence quantum yield (in ClCCCl): 0.034

Structure (SMILES): Fc1ccc2sc3nc(-c4ccccc4)sc3c2c1
- photoluminescence quantum yield (in CS(C)=O): 0.91

Structure (SMILES): CC1(C)C(/C=C/C2=C(Oc3ccc(CCN=C=S)cc3F)C(=C/C=C3/N(CCCS(=O)(=O)[O-])c4ccccc4C3(C)C)/CCC2)=[N+](CCCS(=O)(=O)[O-])c2ccccc21
- photoluminescence quantum yield (in CO): 0.14

Structure (SMILES): Cc1ccccc1
- photoluminescence quantum yield (in C1CCCCC1): 0.22

Structure (SMILES): Cc1cccc2nc(-c3ccc(-c4cc(=O)cc(-c5ccccc5)o4)cc3)c(NC3CCCCC3)n12
- photoluminescence quantum yield (in ClCCl): 0.032

Structure (SMILES): CC(C)(C)c1cc(-c2ccc3c(-c4cc(C(C)(C)C)cc(C(C)(C)C)c4)cc4c5cc(-c6cc(C(C)(C)C)cc(C(C)(C)C)c6)ccc5c(-c5cc(C(C)(C)C)cc(C(C)(C)C)c5)cc4c3c2)cc(C(C)(C)C)c1
- photoluminescence quantum yield (in ClCCl): 0.609

Structure (SMILES): CN(C)c1ccc2nc(-c3ccc(C(=O)O)cc3)sc2c1
- photoluminescence quantum yield (in C1CCCCC1): 0.89
- photoluminescence quantum yield (in CC#N): 0.86
- photoluminescence quantum yield (in CC(C)O): 0.96
- photoluminescence quantum yield (in CO): 0.84
- photoluminescence quantum yield (in CS(C)=O): 0.98
- photoluminescence quantum yield (in ClC(Cl)Cl): 0.96
- photoluminescence quantum yield (in c1ccccc1): 0.85

Structure (SMILES): Cc1ccc(/C=C/c2nc3ccccc3s2)cc1
- photoluminescence quantum yield (in C1CCCCC1): 0.02
- photoluminescence quantum yield (in CO): 0.003

Structure (SMILES): Cc1ccccc1C1=C2C=c3c(oc4ccc(C(C)(C)C)cc34)=[N+]2[B-](F)(F)n2c1cc1c3cc(C(C)(C)C)ccc3oc12
- photoluminescence quantum yield (in C1CCCCC1): 0.89
- photoluminescence quantum yield (in CCOC(C)=O): 0.93
- photoluminescence quantum yield (in CO): 0.86

Structure (SMILES): c1ccc(N(c2ccccc2)c2ccc(-c3ccncn3)cc2)cc1
- photoluminescence quantum yield (in ClCCl): 0.55

Structure (SMILES): CCn1c2ccccc2c2cc3c(cc21)c1ccccc1n3CC
- photoluminescence quantum yield (in ClC(Cl)Cl): 0.13

Structure (SMILES): COc1cc2c(cc1C=C(C#N)C#N)c1ccccc1n2C
- photoluminescence quantum yield (in C1CCOC1): 0.002
- photoluminescence quantum yield (in CC#N): 0.003
- photoluminescence quantum yield (in CCOC(C)=O): 0.004
- photoluminescence quantum yield (in CN(C)C=O): 0.005
- photoluminescence quantum yield (in CO): 0.003
- photoluminescence quantum yield (in CS(C)=O): 0.006
- photoluminescence quantum yield (in Cc1ccccc1): 0.003
- photoluminescence quantum yield (in ClC(Cl)Cl): 0.004
- photoluminescence quantum yield (in ClCCl): 0.004

Structure (SMILES): CCCCCCCCCC[n+]1cc2ccc3c[n+](CCCCCCCCCC)cc4ccc(c1)c2c34
- photoluminescence quantum yield (in CC#N): 0.5

Structure (SMILES): c1ccc(-n2c(-c3ccc(N(c4ccc(-c5ccc(N(c6ccc(-c7nc8c9ccccc9c9ccccc9c8n7-c7ccccc7)cc6)c6ccc(-c7nc8c9ccccc9c9ccccc9c8n7-c7ccccc7)cc6)cc5)cc4)c4ccc(-c5nc6c7ccccc7c7ccccc7c6n5-c5ccccc5)cc4)cc3)nc3c4ccccc4c4ccccc4c32)cc1
- photoluminescence quantum yield (in ClCCl): 0.206

Structure (SMILES): CB1C=Cc2ccc3ccccc3c2N1c1ccccc1
- photoluminescence quantum yield (in C1CCCCC1): 0.04

Structure (SMILES): CCN(CC)c1ccc2c(c1)oc(=O)c1c(C)nc3c(c(-c4ccccc4)nn3C)c12
- photoluminescence quantum yield (in C1CCCCC1): 0.699
- photoluminescence quantum yield (in CCOC(C)=O): 0.627
- photoluminescence quantum yield (in CN(C)C=O): 0.483
- photoluminescence quantum yield (in CO): 0.43
- photoluminescence quantum yield (in ClCCl): 0.673

Structure (SMILES): CC(C)(C)c1cc2ccc3c(N(c4ccccc4)c4ccccc4)cc(N(c4ccccc4)c4ccccc4)c4ccc(c1)c2c34
- photoluminescence quantum yield (in ClCCl): 0.82

Structure (SMILES): COc1ccc(-c2c3ccc([nH]3)c3nc(c(-c4ccc([N+](=O)[O-])cc4)c4ccc([nH]4)c4ccc([nH]4)c(-c4ccc(OC)cc4)c4ccc2o4)C=C3)cc1
- photoluminescence quantum yield (in C1CCOC1): 0.013
- photoluminescence quantum yield (in Cc1ccccc1): 0.075
- photoluminescence quantum yield (in c1ccccc1): 0.08

Structure (SMILES): c1ccc2c(c1)ccc1c3ccccc3ccc21
- photoluminescence quantum yield (in ClCCl): 0.12

Structure (SMILES): CN(C)C(=O)c1ccc(-c2nc3ccc(N(C)C)cc3s2)cc1
- photoluminescence quantum yield (in C1CCCCC1): 0.84
- photoluminescence quantum yield (in CC#N): 0.85
- photoluminescence quantum yield (in CC(C)O): 0.81
- photoluminescence quantum yield (in CO): 0.92
- photoluminescence quantum yield (in CS(C)=O): 0.9
- photoluminescence quantum yield (in ClC(Cl)Cl): 0.89
- photoluminescence quantum yield (in c1ccccc1): 0.98

Structure (SMILES): Fc1c(F)c(-n2c3ccccc3c3ccccc32)c(F)c(F)c1/C=C/C(=C(c1ccccc1)c1ccccc1)c1ccccc1
- photoluminescence quantum yield (in Cc1ccccc1): 0.001

Structure (SMILES): CCCCC1(CCCC)c2cc(C#Cc3ccc4ccc5cccc6ccc3c4c56)ccc2-c2ccc(C#Cc3ccc4ccc5cccc6ccc3c4c56)cc21
- photoluminescence quantum yield (in Cc1ccccc1): 0.99

Structure (SMILES): COc1cccc2cc(-c3cc4cccc(OC)c4oc3=O)oc12
- photoluminescence quantum yield (in CS(C)=O): 0.11

Structure (SMILES): COC(=O)c1ccc2c3ccc(C(=O)OC)c4c(C(=O)OC)ccc(c5ccc(C(=O)OC)c1c25)c43
- photoluminescence quantum yield (in C1COCCO1): 0.99
- photoluminescence quantum yield (in CC#N): 0.97
- photoluminescence quantum yield (in CC(C)=O): 0.99
- photoluminescence quantum yield (in CC(C)O): 0.96
- photoluminescence quantum yield (in CCCCO): 0.96
- photoluminescence quantum yield (in CN(C)C=O): 0.95
- photoluminescence quantum yield (in CO): 0.99
- photoluminescence quantum yield (in ClC(Cl)Cl): 0.83

Structure (SMILES): F[B-]1(F)Oc2ccccc2-c2cnc3ccccc3[n+]21
- photoluminescence quantum yield (in Cc1ccccc1): 0.086

Structure (SMILES): CC(C)(C)NC1=C2C=CC=[N+]2[B-](F)(F)n2cccc21
- photoluminescence quantum yield (in C1CCCCC1): 0.63
- photoluminescence quantum yield (in CC(C)=O): 0.002
- photoluminescence quantum yield (in CCO): 0.002
- photoluminescence quantum yield (in CCOC(C)=O): 0.012
- photoluminescence quantum yield (in CO): 0.001
- photoluminescence quantum yield (in OCC(F)(F)F): 0.006

Structure (SMILES): CCOC(=O)c1ccc(O)c(-c2[nH]c(=O)n3c2-c2ccccc2C3=O)c1
- photoluminescence quantum yield (in CC#N): 0.49
- photoluminescence quantum yield (in CO): 0.4
- photoluminescence quantum yield (in ClCCl): 0.59

Structure (SMILES): COc1c2ccccc2c(OC)c2c(C#Cc3ccccc3)c3cc4sccc4cc3c(C#Cc3ccccc3)c12
- photoluminescence quantum yield (in C1CCOC1): 0.13
- photoluminescence quantum yield (in Cc1ccccc1): 0.1
- photoluminescence quantum yield (in ClCCl): 0.11

Structure (SMILES): O=C(c1ccc2c3c(cccc13)-c1cccc3c1C2CC=C3)c1c(CCc2ccccc2)c2ccc3cccc4c5cccc6ccc1c(c65)c2c34 (stereo unspecified)
- photoluminescence quantum yield (in ClCCl): 0.17

Structure (SMILES): CCCN1c2ccccc2Sc2cc(/C=C\c3cc(=O)oc4ccccc34)ccc21
- photoluminescence quantum yield (in ClC(Cl)Cl): 0.5

Structure (SMILES): O=[N+]([O-])c1ccc(/C2=C3N=C(C(c4ccccc4)=C/3c3ccccc3)/C(c3ccc([N+](=O)[O-])cc3)=c3\[nH]/c(c(-c4ccccc4)c3-c3ccccc3)=C(/c3ccc([N+](=O)[O-])cc3)C3=N/C(=C(/c4ccc([N+](=O)[O-])cc4)c4[nH]c2c(-c2ccccc2)c4-c2ccccc2)C(c2ccccc2)=C3c2ccccc2)cc1
- photoluminescence quantum yield (in ClCCl): 0.003

Structure (SMILES): N#CC(/N=C/c1c(O)ccc2ccccc12)=C(C#N)/N=C/c1c(O)ccc2ccccc12
- photoluminescence quantum yield (in CC#N): 0.37

Structure (SMILES): O=S1(=O)C2=C(c3ccccc31)C1(C3=C(c4ccccc41)S(=O)(=O)c1ccccc13)c1ccccc12
- photoluminescence quantum yield (in ClCCl): 0.76

Structure (SMILES): CC(C)(C)c1ccc2c(c1)c1cc(C(C)(C)C)ccc1n2-c1cc(C(=O)c2cccnc2)cc(-n2c3ccc(C(C)(C)C)cc3c3cc(C(C)(C)C)ccc32)c1
- photoluminescence quantum yield (in Cc1ccccc1): 0.07
- photoluminescence quantum yield (in c1cc(-c2cccc(-n3c4ccccc4c4ccccc43)c2)cc(-n2c3ccccc3c3ccccc32)c1): 0.92

Structure (SMILES): CCN(CC)c1ccc2c(-c3ccccc3C(=O)O)c3c([o+]c2c1)/C(=C/c1nc(C)n2ccccc12)CCC3
- photoluminescence quantum yield (in ClCCl): 0.3

Structure (SMILES): Cc1ccc(-n2cccc2)cc1
- photoluminescence quantum yield (in CC#N): 0.4
- photoluminescence quantum yield (in CCCCCC): 0.28

Structure (SMILES): CNc1cc2nc3cc(Cl)c(Cl)cc3nc2cc1NC
- photoluminescence quantum yield (in CCO): 0.14

Structure (SMILES): CCCCCCN(CCCCCC)c1ccc(C#Cc2ccc(C(F)(F)F)cc2)cc1
- photoluminescence quantum yield (in CO): 0.0074
- photoluminescence quantum yield (in ClCCl): 0.24

Structure (SMILES): N#Cc1cc(C#Cc2c(F)c(F)nc(F)c2F)c(C#Cc2c(F)c(F)nc(F)c2F)cc1C#N
- photoluminescence quantum yield (in CC#N): 0.49

Structure (SMILES): Cn1nc(-c2ccccc2)c2n[nH]nc2/c1=N\c1ccccn1
- photoluminescence quantum yield (in CC#N): 0.05
- photoluminescence quantum yield (in CCO): 0.06
- photoluminescence quantum yield (in Cc1ccccc1): 0.07

Structure (SMILES): C/C(=C\c1ccc(Cl)cc1)c1nc2ccccc2o1
- photoluminescence quantum yield (in C1CCCCC1): 0.02
- photoluminescence quantum yield (in CO): 0.003

Structure (SMILES): CC(C)(C)NC(=O)c1ccc(F)c2ccc3c4ccccc4c4ccccc4c3c12
- photoluminescence quantum yield (in ClCCl): 0.04

Structure (SMILES): FC(F)(F)c1ccc(C#Cc2ncc(-c3ccccc3)o2)cc1
- photoluminescence quantum yield (in ClCCl): 0.24

Structure (SMILES): CC[N+]1(CC)CN2C(=N1)C(C(=O)O)=Cc1cc(OC)c(OC)cc12
- photoluminescence quantum yield (in O): 0.859

Structure (SMILES): COc1ccc(-n2nc(C#N)c(N3CCN(c4ccccn4)CC3)n2)cc1
- photoluminescence quantum yield (in CC#N): 0.064

Structure (SMILES): Cc1ccc(C#Cc2ccc3nc4ccc(C#Cc5ccc(C)cc5)cn4c(=O)c3c2)cc1
- photoluminescence quantum yield (in ClCCl): 0.43

Structure (SMILES): c1ccc2c(c1)-c1sc3ccccc3c1C21c2ccccc2-c2sc3ccccc3c21
- photoluminescence quantum yield (in ClCCl): 0.06

Structure (SMILES): N#Cc1c(/C=C/c2ccc(N(c3ccccc3)c3ccccc3)cc2)cc(-c2ccccc2)cc1N1CCCCC1
- photoluminescence quantum yield (in CS(C)=O): 0.6

Structure (SMILES): O=C1c2cccc3cc4ccccc4c(c23)C(=O)N1Cc1ccccn1
- photoluminescence quantum yield (in C1CCOC1): 0.83
- photoluminescence quantum yield (in CCCCCC): 0.61
- photoluminescence quantum yield (in CCO): 0.91
- photoluminescence quantum yield (in Cc1ccccc1): 0.69
- photoluminescence quantum yield (in ClCCl): 0.93

Structure (SMILES): COC(=O)[C@H](Cc1ccccc1)Nc1c(C(C)=O)c(=O)oc2cc(N(C)C)ccc12
- photoluminescence quantum yield (in ClCCl): 0.0043

Structure (SMILES): O=c1oc2ccccc2cc1-c1cn2ccccc2n1
- photoluminescence quantum yield (in ClC(Cl)Cl): 0.15

Structure (SMILES): c1ccc(C2c3ccccc3-c3ccccc32)cc1
- photoluminescence quantum yield (in CCO): 0.19

Structure (SMILES): COCCOCCOCCOCC(COCCOCCOCCOC)Oc1cc(/C=C/c2ccc(C=C(C#N)C#N)cc2)c(OC(COCCOCCOCCOC)COCCOCCOCCOC)cc1/C=C/c1ccc(C=C(C#N)C#N)cc1
- photoluminescence quantum yield (in ClCCl): 0.53

Structure (SMILES): O=C(O)COc1ccc2[nH]c3c(c2c1)CCCC3=O
- photoluminescence quantum yield (in C1CCOC1): 0.01
- photoluminescence quantum yield (in C1COCCO1): 0.007
- photoluminescence quantum yield (in CC#N): 0.024
- photoluminescence quantum yield (in CCCCCCCCCCCCO): 0.012
- photoluminescence quantum yield (in CCCCCCCCCCO): 0.009
- photoluminescence quantum yield (in CCCCCCCCO): 0.017
- photoluminescence quantum yield (in CCCCCCO): 0.016
- photoluminescence quantum yield (in CCCCO): 0.012
- photoluminescence quantum yield (in CCO): 0.017
- photoluminescence quantum yield (in CCOC(C)=O): 0.018
- photoluminescence quantum yield (in CN(C)C=O): 0.07
- photoluminescence quantum yield (in CO): 0.051
- photoluminescence quantum yield (in CS(C)=O): 0.087
- photoluminescence quantum yield (in Cc1ccccc1): 0.026
- photoluminescence quantum yield (in O): 0.011
- photoluminescence quantum yield (in c1ccccc1): 0.006

Structure (SMILES): CCCCN1C(=O)c2cc(Oc3ccc(C(C)(C)C)cc3)c3c4c(Oc5ccc(C(C)(C)C)cc5)c(Oc5ccc(C(C)(C)C)cc5)c5c6c(cc(Oc7ccc(C(C)(C)C)cc7)c(c7c(Oc8ccc(C(C)(C)C)cc8)c(Oc8ccc(C(C)(C)C)cc8)c(c2c37)C1=O)c64)C(=O)N(CCCC)C5=O
- photoluminescence quantum yield (in ClC(Cl)Cl): 0.75
